Assay results reported in a melting point compilation (Tetko et al.; mined from patent text by program, amines drawn as free bases though some values may be those of a salt).

Row | melting point [°C] | Structure (SMILES)
1 | 140 to 142 | CC(C)c1nn(-c2ccccn2)cc1CCCOc1ccccc1CC(=O)O
2 | 108 to 111 | CSCC(=O)[C@H](Cc1ccc(O)cc1)NC(=O)[C@H](CC(C)C)NC(=O)OCc1ccccc1
3 | 185 to 186 | N#Cc1cc(C(=O)c2ccccc2)ccc1O
4 | 100 to 102 | COc1cc(CO)cc(OC)c1Br
5 | 199 to 203 | Cc1ccc(S(=O)(=O)Nc2ccc3[nH]c(=O)c4ccccc4c3c2)cc1
6 | 172 | Cc1cc(-n2ccnc2)c2cccc(OCc3c(Cl)ccc(S(=O)(=O)N4CCC[C@H]4C(=O)O)c3Cl)c2n1
7 | 81 to 82 | CSc1ncncc1C1c2c(F)cccc2CC1(C)C (stereo unspecified)
8 | 192 to 193 | CNc1nc(-c2ccccc2)c(-c2nc3ccccc3c(=O)n2-c2ccc(C)cc2)s1
9 | 144 to 148 | CCC12CCC3c4ccc(OC)cc4CCC3C1CCC2(OC(C)=O)C(C)=O (stereo unspecified)
10 | 74 to 75 | Cc1cccc2c1SC1(CC1)C2=O
11 | 149 to 150 | COP(=O)(O)CC(C)=CC(N)C(=O)O (stereo unspecified)
12 | 75 to 80 | CCCCN1CSC(=S)N(Cc2ccncc2)C1
13 | 150 to 152 | CC(C)(C)OC(=O)NCc1ccc2c(Br)c(O)ccc2c1
14 | 150 to 152 | COc1ccc(S(=O)(=O)c2cnc(C)nc2Cc2c(C)cc(C)cc2C)cc1
15 | 228 to 230 | O=[N+]([O-])c1oc2ccc(N3Cc4ccccc4C3)cc2c1-c1ccccc1
16 | 158 to 160 | COc1cc(Cl)nc(NC(=O)NS(=O)(=O)C(C)S(=O)(=O)N2CCCC2)n1 (stereo unspecified)
17 | 147 to 152 | O=C(O)Cn1nc(Br)nc1Br
18 | 100 to 102 | COC(=O)C1=CCC(=C2CCC3=C(N=C(C(C)C)C(C(C)C)N3)C2=O)C=C1 (stereo unspecified)
19 | 179 to 180 | CC(=O)NC[C@H]1CN(c2ccc(-c3ccncc3)c(F)c2)C(=O)O1
20 | 165 to 166 | Cc1nn(C)c(O)c1C(=O)c1ccc(Cl)cc1Cl
21 | 291 to 292 | CCOC(=O)c1cc2c(cn1)[nH]c1c(Br)cc([N+](=O)[O-])cc12
22 | 209 to 210 | FC(F)(F)c1cc(C(F)(F)F)n(-c2ccc(Nc3noc4ccccc34)cc2)n1
23 | 138 to 140 | CCOC(=O)CN1C(=O)c2cccc3c(Cl)ccc1c23

The next lines start with the molecule.

Row | Structure (SMILES) | melting point [°C]
24 | Fc1ccc(-c2nc(-c3ccccc3)sc2-c2ccncc2)cc1 | 135 to 137
25 | N#Cc1ccc(C(=O)c2cc(C(F)(F)F)ccc2S)cc1 | 210
26 | O=C(O)CCC=C(c1ccccc1)c1ccccc1 | 80 to 81.5
27 | O=C(Cl)c1cnc(Cl)nc1-c1ccccc1 | 42
28 | C=C(C)C(=O)Nc1ccc(Nc2ccccc2)cc1 | 101 to 103
29 | C=CCOc1ccc(C(=O)C=Cc2cccnc2)c(O)c1 | 115 to 117
30 | CN(Cc1ccccc1)C1CCN(c2ccc(N)cc2)CC1 | 138
31 | CCOc1ccc(-c2nc(-c3ccc(OC(C)=O)c(C(=O)O)c3)cs2)cc1OCC | 178 to 179
32 | CCN1C[C@@H](SCc2ccc(OC)cc2)C[C@H]1C(N)=O | 124 to 125
33 | O=C1c2cc(F)cc(F)c2-n2c1nc1ccccc1c2=O | 287 to 290
34 | COc1cc2c(cc1O[Si](C)(C)C(C)(C)C)CN(C(=O)OC(C)(C)C)CC2 | 46 to 49
35 | COc1ccc(C2SC(=O)NC2=O)cc1C(=O)NCc1ccc(C(F)(F)F)cc1 (stereo unspecified) | 168 to 169
36 | CNc1ncc2c(n1)-c1ccc(Cl)cc1C(c1ccccc1F)=NC2 | 172 to 179
37 | CC1(C)OC(c2ccc(S(C)(=O)=O)cc2)=C(c2cccc(F)c2)C1=O | 178 to 179
38 | COC1(c2ccc(Sc3ccc(C(=O)c4c(F)c(F)c(F)c(F)c4F)cc3)s2)CCOCC1 | 93 to 94
39 | O=C(CBr)Nc1cc(F)c(F)cc1C(=O)O | 177 to 180
40 | O=C(CCCN1CCC(NC(=O)c2ccccc2)CC1)c1ccccc1 | 143 to 144
41 | CN(C)C(=O)c1ccc([N+](=O)[O-])cc1S(=O)(=O)Cl | 129 to 131
